Results published in patent publication US10227332B2, “T-type calcium channel modulator and uses thereof” (UTI Limited Partnership, priority 2014, dated 2019).

Assays:
hCB2 = hCB2 (Homo sapiens (Human), UniProt P34972); test: Radioligand competitive binding assay, CB2 receptor (NIMH PDSP); details: means of three experiments run in triplicate
Excerpt: (§1) The compounds was screened using whole-cell voltage clamp techniques for their ability to mediate tonic block of transiently expressed hCav3.2 channels (FIG. 1). Next, radioligand binding assays were used to assess the affinities of these compounds for both CB1 and CB2 receptors (Table 1).
(§2) CB1 and CB2 radioligand binding data were obtained using National Institute of Mental Health (NIMH) Psychoactive Drug Screening Program (PDSP) resources as described earlier.

rCB1 = rCB1 (Rattus norvegicus (Rat), UniProt P20272); test: Radioligand competitive binding assay, CB1 receptor (NIMH PDSP); details: means of three experiments run in triplicate
Excerpt: as §1, §2

[1] = test system: mice with partial sciatic nerve injury; test: Partial sciatic nerve injury (PNI)-induced neuropathic pain, mechanical hyperalgesia; assay type: in vivo, mouse; details: 30 mg/kg, i.p.; after treatment
Excerpt: (§3) During experiments, all efforts were made to minimize animal suffering according to the policies and recommendations of the International Association for the Study of Pain and all protocols used were approved by the Institutional Animal Care and Use Committee. For all experiments, either adult male C57BL/6J (wild-type) or CACNA1H knockout (Cav3.2 null) mice (20-25 g) purchased from Jackson Laboratories were used. There were a maximum of five mice per cage (30×20×15 cm) and access to food and water was unlimited. Temperature was kept at 23±1° C. on a 12 h light/dark cycle (lights on at 7:00 a.m.). Intraperitoneal (i.p.) injections of drugs were a constant volume of 10 ml/kg body weight. Intrathecal (i.t.) injections used volumes of 10 μl and were performed using the method described previously and carried out routinely in our laboratory. All drugs were dissolved in 1% or less DMSO, whereas control animals received PBS+1% DMSO. For each test, a different group of mice were used and only one experiment per mouse was performed.
Before surgery, mice were anaesthetised with isoflurane (5% induction, 2.5% maintenance). […] Mechanical hyperalgesia was then evaluated in a time-dependant manner.
Mechanical hyperalgesia responses were recorded immediately before the surgeries (baselines), 14 days after the surgeries (0) and at various time points (0.5, 1, 2, 3 h) after treatment. […]

[2] = test system: wild-type mice, formalin-induced pain; test: Formalin test (acute nociceptive and inflammatory phases); assay type: in vivo, mouse; details: for inhibition of pain response time, first phase: formalin first phase; for inhibition of pain response time, second phase: formalin second phase
Excerpt: as §3
Before experiments were performed, mice were left to acclimatize for at least 60 minutes. Animals were then injected intraplantarily (i.pl.) in the ventral surface of the right hindpaw with 20 μl of a formalin solution (1.25%) made up in PBS. Following i.pl. injections of formalin, individual animals were placed immediately into observation chambers and monitored from 0-5 min (acute nociceptive phase) and 15-30 min (inflammatory phase).

wild type mice = test: Open-field test (locomotor activity); assay type: in vivo, mouse; details: 30 mg/kg, i.p.
Excerpt: as §3
Briefly, the apparatus consisted of a wooden box measuring 40×60×50 cm with a glass front wall. The floor was divided into 12 equal squares and the entire apparatus was placed in a sound free room. Animals were placed in the rear left square and left to explore freely and the number of squares crossed with all paws (crossing) in a 6 minute timeframe was counted. […]

[3] = 1-10 μg/i.t., 20 minutes before
[4] = 10-100 mg/kg, i.p., 30 minutes prior

Structure (SMILES)	hCB2 Ki (hCB2)	rCB1 Ki (rCB1)	duration of attenuation of mechanical hyperalgesia [1] [h]	inhibition of pain response time, first phase [2, 3] [%]	inhibition of pain response time, second phase [2, 3] [%]	inhibition of pain response time, first phase [2, 4] [%]	inhibition of pain response time, second phase [2, 4] [%]	locomotor activity in open-field test (wild type mice)	locomotor activity in open-field test (wild type mice; listed as compound 9)
CCCCCn1c2ccccc2c2cc(C(=O)NCC3CCNCC3)ccc21 [Compound 7, 9-Pentyl-N-(piperidin-4-ylmethyl)-9H-carbazole-3-carboxamide]	n.b.	n.b.	–	–	–	–	–	–	–
CCCCCn1c2ccccc2c2cc(C(=O)NCC3CCN(CC(=O)NC(C)(C)C)CC3)ccc21 [Compound 9, N-((1-(2-(tert-butylamino)-2-oxoethyl)piperidin-4-yl)methyl)-9-pentyl-9H-carbazole-3-carboxamide]	–	–	> 3	61±8	76±10	47±2	66±48	no significant motor deficits	did not significantly affect locomotor activity
